# Tests used:
# [1] = Solubility measurement of beta-carotene in water (0.45 micron filtration, UV-Vis spectrometry); type: physicochemical; conditions: beta-carotene admixed in edible oil, mixed with 10 ml DI water, 0.45 micron syringe filter
# Protocol: Solubility Measurement: For comparison purpose, the solubility of beta-carotene was measured both in edible oil and in the micellized product of Example 1 described above. In these measurements a suitable amount of sample is mixed with 10 ml of DI water for at least 10 minutes. The solutions are filtered through 0.45 microns syringe filter. The beta-carotene contained in the sample after this filtration is measured by UV-Vis spectrometry. […] 100% of the originally admixed beta-carotene is measured to be present in the micellized filtered sample of Example 1.
# [2] = Solubility measurement of Co-Q10 in aqueous solution (HPLC assay); type: physicochemical
SMILES,beta-carotene found in the aqueous sample [1],Co-Q10 detected in aqueous solution [2]
CC1=C(/C=C/C(C)=C/C=C/C(C)=C/C=C/C=C(C)/C=C/C=C(C)/C=C/C2=C(C)CCCC2(C)C)C(C)(C)CCC1 [beta-carotene],No detectable amount,
"COC1=C(OC)C(=O)C(C/C=C(\C)CC/C=C(\C)CC/C=C(\C)CC/C=C(\C)CC/C=C(\C)CC/C=C(\C)CC/C=C(\C)CC/C=C(\C)CC/C=C(\C)CCC=C(C)C)=C(C)C1=O [Co-Q10 powder, ubidecarenone]",,no Co-Q10 detected

# Reference: patent US20050238675A1, “Water-soluble formulations of fat soluble vitamins and pharmaceutical agents and their applications” (priority 2004, published 2005)
